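Dose response: 5 concentrations. Exposure: 48 h. Format: 96-well plates. Endpoint: linear interpolation; highest concentration if not reached. At the TGI there is no net growth.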
Columns and labels:
Assay in all cases: NCI-60 cell line screen, 48 h
EKVX NSCLC = test system: EKVX NSCLC
HCC-2998 colon = test system: HCC-2998 colon
HL-60(TB) leukemia = test system: HL-60(TB) leukemia
OVCAR-8 ovarian = test system: OVCAR-8 ovarian
HOP-92 NSCLC = test system: HOP-92 NSCLC
RXF 393 renal = test system: RXF 393 renal
IGROV1 ovarian = test system: IGROV1 ovarian
M14 melanoma = test system: M14 melanoma
KM12 colon = test system: KM12 colon
SK-OV-3 ovarian = test system: SK-OV-3 ovarian
HT29 colon = test system: HT29 colon
MCF7 breast = test system: MCF7 breast

SMILES | TGI (EKVX NSCLC) [µM] | TGI (HCC-2998 colon) [µM] | TGI (HL-60(TB) leukemia) [µM] | TGI (OVCAR-8 ovarian) [µM] | TGI (HOP-92 NSCLC) [µM] | TGI (RXF 393 renal) [µM] | TGI (IGROV1 ovarian) [µM] | TGI (M14 melanoma) [µM] | TGI (KM12 colon) [µM] | TGI (SK-OV-3 ovarian) [µM] | TGI (HT29 colon) [µM] | TGI (MCF7 breast) [µM]
CCOC(=O)c1nc2ccc(C(F)(F)F)cc2nc1Oc1ccc(F)cc1 | > 100 | > 100 | > 100 | > 100 | > 100 | > 100 | > 100 | > 100 | > 100 | > 100 | > 100 | > 100
NC1=NC(OCC2(CO)CCC2)C=C(NCC2(CO)CCC2)N1 (stereo unspecified) | > 100 | > 100 | > 100 | > 100 | > 100 | > 100 | > 100 | > 100 | > 100 | > 100 | > 100 | > 100
O=S1(=O)CCN(Cc2ccccc2)/C1=N\S(=O)(=O)c1ccc(Cl)cc1 | 28.5 | 34.5 | 65.9 | 32.9 | 35.3 | 34.6 | 32.5 | 32.9 | > 100 | > 100 | 32.6 | 42.4
O=C1CC2(CCC(O)(c3ccc(Cl)cc3)C(C(=O)c3ccc(Cl)cc3)C2)C(=O)c2ccccc2N1 (stereo unspecified) | > 48.6 | > 100 | > 31.6 | > 62.4 | 8.31 | 22.3 | > 52.1 | > 100 | > 100 | 35.1 | > 50 | > 100
c1ccc(CCN(Cc2nc3ccccc3[nH]2)Cc2nc3ccccc3[nH]2)cc1 | > 77.8 | 33.6 | 7.8 | 18.6 | 30.7 | 28.9 | 17.8 | 26.7 | 27.3 | 70 | > 63.5 | 35.1
Cc1ccc(S(=O)(=O)NNC(=S)Nc2cccc3ccccc23)cc1 | > 100 | > 100 | > 100 | > 100 | 86 | > 100 | > 100 | > 100 | 99 | > 100 | > 100 | > 100
CN(C)CCNc1ccc2c(=O)n(CCN(C)C)c(=O)n3c4ccc(N)cc4c(=O)c1c23 | 0.593 | 0.809 | 0.278 | 0.722 | 0.87 | 0.263 | 0.534 | 0.449 | 7.52 | 2.7 | 0.46 | 0.242
O=[N+]([O-])c1cccc2nccc(NCC(O)CO)c12 (stereo unspecified) | 27.6 | 25.8 | 49.4 | 33.2 | 53.8 | 26.4 | 38.9 | 32.9 | 28.7 | 74.9 | 42 | 40
C=C(C)[C@@H]1CC[C@]2(C(=O)O)CC[C@]3(C)[C@H](CC[C@@H]4[C@@]5(C)CC[C@H](C(=O)/C=C/c6ccc(O)cc6)C(C)(C)[C@@H]5CC[C@]43C)[C@@H]12 | 24.4 | 11.4 | 12.7 | 53.9 | 29.2 | 65.1 | 28.3 | 21.9 | 18.4 | 36.3 | 45.4 | 11.5
CC(=O)CCC[C@@H](C)[C@@H]1O[C@H]([C@@]2(C)CCC(=O)O2)C[C@H]2C(CSc3ccccc3)C(=O)O[C@@H]12 (stereo partly specified) | 24.3 | 29.2 | 12.8 | > 50.8 | 39.1 | 15.9 | > 38 | 26.8 | 28.9 | > 100 | 40.1 | 24.9
CNC(=O)c1n[nH][nH]c1=O | > 100 | > 100 | > 100 | > 100 | > 100 | > 100 | > 100 | > 100 | > 100 | > 100 | > 100 | > 100
CC(C)/C=N\n1c(N)c(C#N)c(C#N)c1C(C)C | 72.8 | 36.4 | > 100 | 63.7 | 38.3 | > 100 | 77.8 | > 100 | > 100 | > 100 | > 100 | > 100
CC(C)CCC[C@@H](C)C1CCC2[C@@H]3CCC4CC(CCC=C(c5cc(Cl)c(OC(=O)c6ccccc6)c(C(=O)O)c5)c5cc(Cl)c(OC(=O)c6ccccc6)c(C(=O)O)c5)CC[C@]4(C)C3CC[C@@]21C (stereo partly specified) | > 100 | > 100 | > 100 | > 100 | 73.3 | > 100 | 94.3 | 29.3 | > 100 | > 100 | > 100 | > 100

From PubChem BioAssay (NCI)
